Assay [1] deals with NMDAR-mediated EPSCs in VTA dopamine neurons. Put plainly: Evoked NMDAR-mediated EPSCs, whole-cell voltage clamp at +40 mV, VTA neurons in midbrain slices. To be noted: for effect on orexin A-mediated potentiation of NMDAR EPSCs: antagonist 1 μM, n=8 (FIG. 1C). Type of assay: cell-based, rat. Here is the method:
(§1) Excitatory postsynaptic currents (EPSCs) were recorded from VTA neurons in rat midbrain slices. EPSCs were evoked while holding neurons in voltage clamp at +40 mV. Measurements were taken 20 ms after the stimulus artifact, a time point at which the glutamatergic EPSC is mediated purely by NMDARs.
The patch pipette was loaded with the PLC inhibitor, U-73122 (1 μM, FIG. 2A, C, n=6) or the PKC inhibitor, chelerythrin (1 μM, FIG. 1A, B, n=6). […] Next, the protein kinase A inhibitor, PKI (20 μM, FIG. 2A, F, n=8) or Rp-cAMPs, a blocker of cAMP (100 μM, FIG. 2A, E, n=5) was added to the patch pipette.
Activation of PKC is implicated in NMDAR-dependent long-term potentiation (Malinow et al., 1989) and it modulates NMDAR trafficking to the membrane (Lan et al., 2001; Scott et al., 2001; Fong et al., 2002). NMDARs can translocate from intracellular or extrasynaptic pools to synaptic sites (Lan et al., 2001; Tovar and Westbrook, 2002). […] In a separate group of slices, orexin A (100 nM, n=6) was applied for 5 min during the washout period.
(§2) All of the electrophysiological recordings were performed in rats ranging from P21 to P30. Briefly, rats were anesthetized with halothane and sacrificed. Horizontal sections of the VTA ([…]) were prepared with a vibratome (Leica, Nussloch, Germany). Slices were placed in a holding chamber and allowed to recover for at least 1 hour before being placed in the recording chamber and superfused with bicarbonate-buffered solution (ACSF) saturated with 95% O2/5% CO2 and containing (in mM): 119 NaCl, 1.6 KCl, 1.0 NaH2PO4, 1.3 MgCl2, 2.5 CaCl2, 26.2 NaHCO3 and 11 glucose (at 32-34° C.). Picrotoxin (100 μM) was added to block GABAA receptor-mediated inhibitory postsynaptic currents. Cells were visualized using infrared differential interference contrast video microscopy. Whole-cell voltage clamp recordings were made using an Axopatch 1D amplifier (Axon Instruments, Union City, Calif.). Electrodes (2.8-4.0 MΩ) contained (in mM): 120 Cesium Methansulfonate, 20 HEPES, 0.4 EGTA, 2.8 NaCl, 5 TEA-Cl, 2.5 MgATP, and 0.25 NaGTP, pH 7.2-7.3 (270-285 mOsm). Series resistance (10-40 MΩ) and input resistance were monitored on-line with a 4-mV depolarizing step (50 ms) given just after every afferent stimulus. Dopaminergic VTA neurons were identified by the presence of a large Ih current (Lacey et al., 1990; Johnson and North, 1992) and, in some cases, tyrosine hydroxylase labeling. A bipolar stimulating electrode was placed 100-300 μm rostral to the recording electrode and was used to stimulate excitatory afferents at 0.1 Hz. Neurons were voltage-clamped at −70 mV and +40 mV to record AMPAR- and NMDAR-mediated EPSCs.

The subject of another assay is reinforcement for food. Kind of assay: Operant food self-administration, progressive ratio schedule. Type of assay: in vivo, rats. The protocol: After 3-4 weeks of self-administration of cocaine (0.5 mg/infusion) ramping from fixed ratio of 1 lever press (FR1) to receive a reward to a stable fixed ratio of 5 lever presses to receive a reward (FR5) schedule, animals lever pressed for cocaine on a progressive ratio schedule for 4 days. On the second and third day, each animal received a vehicle injection (i.p.), and on the fourth day the animals received an injection (i.p.) of the OXR1 antagonist: SB334867, 10 mg/kg. As a control, orexin modulation of food self-administration was examined under the same paradigm. For food self-administration, animals were trained to an FR5 schedule for food pellets.
This effect of the OXR1 antagonist was not observed with respect to reinforcement for food. Rats were trained to lever press for food on an […] schedule, and subsequently a progressive ratio schedule. Rats were given vehicle on the 2nd and 3rd day of progressive ratio testing and then SB 334867 (10 mg/kg, i.p.) on the 4th day.

The next assay has as its system AMPAR mEPSCs. Put plainly: AMPAR-mediated miniature EPSCs (mEPSCs) in VTA neurons. Type of assay: cell-based, rat. The protocol:
Next, to investigate whether AMPAR function and/or number was modified with orexin A treatment, AMPAR-mediated miniature EPSCs (mEPSCs) were examined (a standard method for determining the locus of synaptic change). Compared to untreated neurons, orexin A (100 nM) caused a significant increase in both amplitude (FIG. 6C,D,F) and frequency (FIG. 6C,E,G) 3-4 hours after application (24±1.6 pA; 2.4±0.5 Hz; n=7 vs control: 13±1.3 pA; 0.93±0.16 Hz; n=7; FIG. 6A), but not at 15 min (15±1.7 pA; 0.9±0.1 Hz; n=[…], FIG. 6B).
AMPAR mEPSCs were recorded in cells voltage-clamped at −70 mV in lidocaine (500 μM), APV (50 μM) and sucrose (100 mM). NMDAR mEPSCs were recorded at −40 mV in Mg2+-free external solution with lidocaine (500 μM), glycine (20 μM), and CNQX (10 μM). mEPSCs were collected using Clampex (Axon Instruments) and analyzed using Mini Analysis Program (Synaptosoft). Detection criteria were set at >10 pA, <1 ms rise-time, and <3 ms decay-time for AMPAR mEPSCs and >10 pA, <1 ms rise-time, and <10 ms decay-time for NMDAR mEPSCs. mEPSC traces were recorded while sampling every 10 μs, the images were filtered at 5 kHz. Averaged mEPSCs were constructed using Mini Analysis Program (Synaptosoft).

The next assay has as its system AMPAR-induced current. Put plainly: Holding current change on bath-applied AMPA with cyclothiazide. The class given is cell-based, rat.
Assay [2] concerns AMPAR-mediated EPSCs in VTA dopamine neurons. Put plainly: Evoked AMPAR-mediated EPSCs recorded at −70 mV, VTA slices. The class given is cell-based, rat. Conditions: orexin A 100 nM. The protocol: as §1
as §2, with “Electrodes (2.8-4.0 MΩ) contained (in mM): 120 Cesium Methansulfonate, 20 HEPES, 0.4 EGTA, 2.8 NaCl, 5 TEA-Cl, 2.5 MgATP, and 0.25 NaGTP, pH 7.2-7.3 (270-285 mOsm).” left out, “Dopaminergic VTA neurons were identified by the presence of a large Ih current (Lacey et al., 1990; Johnson and North, 1992) and, in some cases, tyrosine hydroxylase labeling. A bipolar stimulating electrode was placed 100-300 μm rostral to the recording electrode and was used to stimulate excitatory afferents at 0.1 Hz. Neurons were voltage-clamped at −70 mV and +40 mV to record AMPAR- and NMDAR-mediated EPSCs.” left out

Setting [3] is: 10 mg/kg i.p. on 4th day of progressive ratio, n=10.
[4] abbreviates: 3-4 hours after orexin A 100 nM, n=7.
[5] abbreviates: 3-4 hours after orexin A, APV 50 μM applied 3 min prior and during orexin, n=7.
The mark [6] stands for this setting: 15 min after orexin A 100 nM, n=6.
Setting [7] is: orexin A 100 nM in the presence of ifenprodil 3 μM, n=6.

“Also recorded” adds a separate entry of the source. Where no end group is shown, it is not given here. Bounds are passed on as bounds.

Take `Cc1nc2ccc(NC(=O)Nc3ccnc4cccnc34)cc2o1.Cl` [SB 334867, 1-(2-methylbenzoxazol-6-yl)-3-[1,5]naphthyridin-4-yl urea hydrochloride]: the “effect on orexin A-mediated potentiation of NMDAR EPSCs” value in assay [1] (hydrochloride) is “significantly inhibited”. For the same molecule, the “effect on orexin A-mediated potentiation of NMDAR EPSCs” value in assay [1] (listed as SB 334857, hydrochloride) was “blocked”. In addition, in the assay on reinforcement for food (setting [3]), the “breakpoint (food)” value is “unaltered” and the “total number of food pellets received” value is on record as “not altered”. Moreover, in the assay with reinforcement for food (10 mg/kg i.p., hydrochloride), the reinforcement for food result was “not observed; also recorded: did not alter”.
As to “orexin A: neuropeptide synthesized in neurons of the LH; orexin receptor agonist selective for the OXR1 receptor (QPLPDCCRQKTCSCRLYELLHGAGNHAAGILTL; ends and bridges not checked; cysteine pairing not given here; UniProt O43612 34-66, looked up)”, the “AMPAR mEPSC amplitude” value in the assay on AMPAR mEPSCs (setting [4]) came out at 24±1.6 pA; in the assay on AMPAR mEPSCs (setting [5]), 16±0.6 pA; in the assay with AMPAR mEPSCs (setting [6]), 15±1.7 pA. The figures for the “AMPAR mEPSC frequency” value in the assay on AMPAR mEPSCs (setting [4]), in the assay with AMPAR mEPSCs (setting [5]) and with AMPAR mEPSCs (setting [6]) were 2.4±0.5 Hz, 1.6±0.3 Hz and 0.9±0.1 Hz, respectively. In assay [1] (2 TH-negative neurons), the “response of neurons that did not express TH” value is “neither responded”. Besides, the “NMDAR eEPSCs potentiated to a maximum of” value in assay [1] (5 min co-application of orexin A 1 nM with CRF 10 nM, n=7) was found to be 123±12%. The “NMDAR EPSC before orexin A” value in assay [1] (NR2A/C (NVP-AAM077 0.4 μM) and NR2B (ifenprodil 3 μM) inhibitors co-applied, n=6) was found to be 32±5%. Moreover, the “TH-containing neurons with potentiated NMDAR responses” value in assay [1] (biocytin-filled, tyrosine hydroxylase positive neurons) is reported as 7/8. For the same molecule, the “potentiation of NMDAR-mediated EPSCs” value in assay [1] (orexin A 1 nM (FIG. 1B), n=6) is reported as 5±1%; in assay [1] (orexin A 10 nM (FIG. 1B), n=6), 18±3%; in assay [1] (orexin A 100 nM (FIG. 1B), n=6), 42±5%; in assay [1] (orexin A 100 nM bath application 5 min (FIG. 1A), n=12), 49±9%; in assay [1] (setting [7]), 36%. Moreover, the “potentiation of NMDARs” value in assay [1] (orexin A 1 nM (FIG. 14A), n=6) is on record as 5.7±1.6%. Further, the “maximum current after MK-801 washout” value in assay [1] (orexin A 100 nM 5 min during washout of MK-801 10 μM, n=6) is recorded as 40±17%. Further, the “orexin A potentiation of NMDAR EPSCs” value in assay [1] (orexin A 100 nM after NVP-AAM077 0.4 μM and ifenprodil 3 μM co-application) is on record as “largely inhibited; also recorded: blocked”. For the same molecule, the “duration of potentiation after washout” value in assay [1] (orexin A 100 nM applied for 30 min) is given as above 40 min. In addition, the “potentiation of NMDAR EPSCs” value in assay [1] (orexin A 100 nM applied for 30 min, n=6) was determined as 74±16%. Besides, the “maximum potentiation of NMDAR EPSCs” value in assay [1] (orexin A 100 nM in the presence of NVP-AAM077 0.4 μM, n=7) is reported as 20±6%. For the same molecule, the “effect on remaining current” value in assay [1] (orexin A 100 nM in the presence of NVP-AAM077, ifenprodil and PPDA) is given as “did not alter”. Also, the “maximum amplitude, of baseline EPSCs” value in assay [1] (setting [7]) is 107±16%. In addition, the “NMDAR EPSC after orexin A” value in assay [1] (orexin A 100 nM with NVP-AAM077 0.4 μM and ifenprodil 3 μM co-applied, n=6) came to 45±12%. Besides, the “neurons with potentiation greater than 10% / neurons recorded” value in assay [1] (orexin A 100 nM, 5 min) was 10/12. Moreover, in assay [1] (orexin A 5 min during washout of MK-801 20 μM + NMDA 500 μM, n=6), the “maximum current after MK-801 and NMDA washout” value is reported as 20±2%. Besides, in assay [1] (orexin A in the presence of Zn2+ (300 nM), n=5), the “maximum potentiation of NMDARs” value is 14±4%. Moreover, the AMPAR-induced current with AMPAR-induced current (AMPA 2 μM 30 sec + cyclothiazide 100 μM, 15 min after orexin A 100 nM, n=5) was −243±79 pA; with AMPAR-induced current (AMPA 2 μM + cyclothiazide, 3-4 hours after orexin A 100 nM, n=6), −367±63 pA. Further, the “change of AMPAR-mediated EPSCs” value is listed as “not changed” in assay [2] (n=8) and “does not increase” in assay [2] (n=8, listed as Orexin A).

The values are drawn from patent publication US20060178307A1, “Modulation of NMDA receptor currents via orexin receptor and/or CRF receptor” (priority 2005, published 2006).
